From ChEMBL document CHEMBL1153145, “Novel lead for potent inhibitors of breast cancer resistance protein (BCRP)” (Bioorg Med Chem Lett, 2010)

Tests used:
[1] = biological target: T1, Broad substrate specificity ATP-binding cassette transporter ABCG2 (Homo sapiens, UniProt Q9UNQ0); assay: Inhibition of BCRP expressed in MCF7 MX cells by Hoechst 33342 staining; type: cell-based
T1 sequence (Q9UNQ0 whole entry): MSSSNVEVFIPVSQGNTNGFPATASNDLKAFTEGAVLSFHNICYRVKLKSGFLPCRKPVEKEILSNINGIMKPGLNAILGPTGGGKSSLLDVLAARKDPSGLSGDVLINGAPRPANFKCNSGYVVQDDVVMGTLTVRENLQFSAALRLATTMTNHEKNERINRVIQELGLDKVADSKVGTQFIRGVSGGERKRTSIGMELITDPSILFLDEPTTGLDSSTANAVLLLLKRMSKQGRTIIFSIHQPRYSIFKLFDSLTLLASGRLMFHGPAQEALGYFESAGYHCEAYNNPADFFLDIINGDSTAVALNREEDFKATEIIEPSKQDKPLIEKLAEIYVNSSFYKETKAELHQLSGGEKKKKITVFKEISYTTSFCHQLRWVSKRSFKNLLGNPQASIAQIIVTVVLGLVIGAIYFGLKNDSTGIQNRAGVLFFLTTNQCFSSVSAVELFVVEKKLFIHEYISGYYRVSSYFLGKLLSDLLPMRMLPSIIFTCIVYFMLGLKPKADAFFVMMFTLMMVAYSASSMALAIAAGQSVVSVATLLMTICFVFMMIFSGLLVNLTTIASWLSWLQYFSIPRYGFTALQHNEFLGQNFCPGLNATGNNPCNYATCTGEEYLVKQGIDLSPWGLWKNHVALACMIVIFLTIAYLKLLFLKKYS

[2] = biological target: T1, Broad substrate specificity ATP-binding cassette transporter ABCG2; assay: Inhibition of BCRP expressed in MDCK cells by pheophorbide A assay; type: cell-based
[3] = biological target: Multidrug resistance-associated protein 1 (Homo sapiens, UniProt P33527); assay: Inhibition of MRP1 assessed as calcein AM accumulation by fluorescence assay
Sequence of Multidrug resistance-associated protein 1 (P33527 whole entry): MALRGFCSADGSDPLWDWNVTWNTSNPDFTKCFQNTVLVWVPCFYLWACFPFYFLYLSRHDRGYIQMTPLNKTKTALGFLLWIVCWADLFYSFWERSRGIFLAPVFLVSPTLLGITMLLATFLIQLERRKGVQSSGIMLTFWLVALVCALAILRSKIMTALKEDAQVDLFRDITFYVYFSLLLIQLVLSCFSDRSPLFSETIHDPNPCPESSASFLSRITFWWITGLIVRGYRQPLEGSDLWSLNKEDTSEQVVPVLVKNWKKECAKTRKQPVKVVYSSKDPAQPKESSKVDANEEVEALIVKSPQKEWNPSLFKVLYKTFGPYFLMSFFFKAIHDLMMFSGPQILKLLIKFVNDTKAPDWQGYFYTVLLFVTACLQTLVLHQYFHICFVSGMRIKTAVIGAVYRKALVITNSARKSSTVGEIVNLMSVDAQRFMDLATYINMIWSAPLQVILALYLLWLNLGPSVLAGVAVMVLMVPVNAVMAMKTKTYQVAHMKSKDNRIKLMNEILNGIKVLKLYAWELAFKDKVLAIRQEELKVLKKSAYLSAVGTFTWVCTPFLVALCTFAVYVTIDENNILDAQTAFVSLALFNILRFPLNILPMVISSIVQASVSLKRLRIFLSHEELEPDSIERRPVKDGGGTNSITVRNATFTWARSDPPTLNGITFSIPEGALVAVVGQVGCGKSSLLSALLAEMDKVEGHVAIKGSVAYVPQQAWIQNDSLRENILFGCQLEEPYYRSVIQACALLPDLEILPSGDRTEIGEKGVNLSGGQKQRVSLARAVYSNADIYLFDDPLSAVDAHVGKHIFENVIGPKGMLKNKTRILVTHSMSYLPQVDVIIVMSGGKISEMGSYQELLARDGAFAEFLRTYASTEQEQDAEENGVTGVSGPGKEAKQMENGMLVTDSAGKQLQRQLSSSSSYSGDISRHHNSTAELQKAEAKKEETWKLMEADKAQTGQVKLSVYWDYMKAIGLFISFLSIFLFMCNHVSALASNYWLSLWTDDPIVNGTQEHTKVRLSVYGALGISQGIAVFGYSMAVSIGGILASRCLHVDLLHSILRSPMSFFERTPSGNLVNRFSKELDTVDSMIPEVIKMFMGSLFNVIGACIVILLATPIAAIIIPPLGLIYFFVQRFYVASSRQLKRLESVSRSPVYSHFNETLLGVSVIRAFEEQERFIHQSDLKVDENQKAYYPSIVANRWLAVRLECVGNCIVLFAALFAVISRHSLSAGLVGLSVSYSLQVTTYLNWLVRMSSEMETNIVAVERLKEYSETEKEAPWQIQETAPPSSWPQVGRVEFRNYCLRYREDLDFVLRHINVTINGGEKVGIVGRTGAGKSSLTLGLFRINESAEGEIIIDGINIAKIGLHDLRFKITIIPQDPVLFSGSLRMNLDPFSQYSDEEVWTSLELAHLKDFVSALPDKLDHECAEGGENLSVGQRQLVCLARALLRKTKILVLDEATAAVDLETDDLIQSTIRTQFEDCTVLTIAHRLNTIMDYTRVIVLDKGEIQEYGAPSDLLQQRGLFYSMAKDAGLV

| SMILES | IC50 [1] [µM] | IC50 [2] [µM] | IC50 [3] [µM] |
| --- | --- | --- | --- |
| COc1ccc(C(=O)Nc2ccccc2C(=O)Nc2ccc(CCN3CCc4cc(OC)c(OC)cc4C3)cc2)cc1OC | 0.93 | 0.86 | > 20 |
| O=C(Nc1ccc(CCN2CCc3ccccc3C2)cc1)c1ccccc1[N+](=O)[O-] | 51.3 | 45.7 | – |
| Nc1ccccc1C(=O)Nc1ccc(CCN2CCc3ccccc3C2)cc1 | 17.8 | 20.9 | – |
| COc1cc2c(cc1OC)CN(CCc1ccc(NC(=O)c3ccc(N)cc3)cc1)CC2 | 219 | 98.2 | – |
| COc1cc2c(cc1OC)CN(CCc1ccc(NC(=O)c3ccccc3N)cc1)CC2 | 32.4 | 20.7 | – |
| COc1cc2c(cc1OC)CN(CCc1ccc(NC(=O)c3ccccc3[N+](=O)[O-])cc1)CC2 | 77.6 | 40 | – |
| COc1cc2c(cc1OC)CN(CCc1ccc(NC(=O)Nc3ccc(N)cc3)cc1)CC2 | 74.1 | 46.4 | – |
| O=C(Nc1ccc(CCN2CCc3ccccc3C2)cc1)Nc1ccccc1[N+](=O)[O-] | 6.76 | 8.71 | – |
| COc1cc2c(cc1OC)CN(CCc1ccc(NC(=O)c3ccccc3NC(=O)Nc3ccc([N+](=O)[O-])cc3)cc1)CC2 | 0.54 | 0.5 | > 20 |
| COc1cc2c(cc1OC)CN(CCc1ccc(NC(=O)c3ccccc3NC(=O)c3ccc([N+](=O)[O-])cc3)cc1)CC2 | 0.69 | 0.63 | > 20 |
| COc1ccc(C(=O)Nc2ccccc2NC(=O)Nc2ccc(CCN3CCc4cc(OC)c(OC)cc4C3)cc2)cc1OC | 10.2 | 6.98 | – |

The remaining molecules from weak to strong by IC50 [1], led by results:

| IC50 [1] [µM] | IC50 [2] [µM] | IC50 [3] [µM] | SMILES |
| --- | --- | --- | --- |
| 102 | 74.1 | – | Nc1ccccc1NC(=O)Nc1ccc(CCN2CCc3ccccc3C2)cc1 |
| 66.1 | 58.4 | – | COc1cc2c(cc1OC)CN(CCc1ccc(NC(=O)Nc3ccccc3N)cc1)CC2 |
| 10.2 | 9.08 | – | COc1cc2c(cc1OC)CN(CCc1ccc(NC(=O)Nc3ccccc3[N+](=O)[O-])cc1)CC2 |
| 6.92 | 4.38 | – | COc1cc2c(cc1OC)CN(CCc1ccc(NC(=O)c3ccc([N+](=O)[O-])cc3)cc1)CC2 |
| 3.89 | 2.61 | – | COc1cc2c(cc1OC)CN(CCc1ccc(NC(=O)Nc3ccc([N+](=O)[O-])cc3)cc1)CC2 |
| 0.68 | 0.85 | – | COc1cc2c(cc1OC)CN(CCc1ccc(NC(=O)c3cc(OC)c(OC)cc3NC(=O)c3cnc4ccccc4c3)cc1)CC2 |
